Measured values as given in ChEMBL document CHEMBL1158207, “Mauritiamine, a New Antifouling Oroidin Dimer from the Marine Sponge Agelas mauritiana” (1996).
Calls of active or inactive are those of the source. The calls are words filed in the database; no cut-off is given here.

Tests used:
[1] = tested on: Microbacterium maritypicum; test: Antimicrobial activity against Flavobacterium marinotypicum ATCC 19260 at 10 ug/disk after 24 hrs by paper disk method; type: functional; details: ATCC 19260, 24 h, read-out: IZ
[2] = tested on: Ciona savignyi; test: Promotion of metamorphosis in ascidian Ciona savignyi larvae at 2.5 ug/ml after 10 hrs; type: functional, organism-based

| SMILES | zone of inhibition at 10 µg/disc [1] | Activity [2] |
| --- | --- | --- |
| NC1=NC(=O)C(/C=C/CNC(=O)c2cc(Br)c(Br)[nH]2)(c2nc(N)[nH]c2/C=C/CNC(=O)c2cc(Br)c(Br)[nH]2)N1 (stereo not drawn) [MAURITIAMINE] | 10 mm | – |
| Nc1ncc(/C=C/CNC(=O)c2cc(Br)c(Br)[nH]2)[nH]1 [OROIDIN] | 15 mm | – |
| NC(=O)c1cc(Br)c(Br)[nH]1 | – | Active |
